# Columns and labels:
# [1] = test system: Bacillus subtilis PCI 219; assay: In vitro antimicrobial activity, serial two-fold agar dilution; format: cell-based; conditions: nutrient agar medium
# Experimental: (§1) The antibacterial activity of BBM-1644 was determined by the serial two-fold agar dilution method. Nutrient agar medium was used for gram-positive and gram-negative bacteria; nutrient agar medium containing 4% glycerol for acid-fast bacteria and Sabaouraud agar medium for fungi. The activity was expressed as minimum inhibitory concentration (MIC) in the agar medium and the results are shown in Table 6 along with those of neocarzinostatin.
# [2] = test system: Candida albicans IAM 4888; assay: as above; format: cell-based; conditions: Sabouraud agar medium
# Experimental: as §1
# Escherichia coli NIHJ = assay: as above; format: cell-based; conditions: nutrient agar medium
# Experimental: as §1
# [3] = test system: Klebsiella pneumoniae D-11; assay: as above; format: cell-based; conditions: nutrient agar medium
# Experimental: as §1
# Micrococcus flavus D12 = assay: as above; format: cell-based; conditions: nutrient agar medium
# Experimental: as §1
# [4] = test system: Micrococcus luteus PCI 1001; assay: as above; format: cell-based; conditions: nutrient agar medium
# Experimental: as §1
# Mycobacterium phlei D88 = assay: as above; format: cell-based; conditions: nutrient agar medium containing 4% glycerol
# Experimental: as §1
# [5] = test system: Mycobacterium smegmatis 607 D87; assay: as above; format: cell-based; conditions: nutrient agar medium containing 4% glycerol
# Experimental: as §1
# Proteus vulgaris A9436 = assay: as above; format: cell-based; conditions: nutrient agar medium
# Experimental: as §1
# [6] = test system: Pseudomonas aeruginosa A9930; assay: as above; format: cell-based; conditions: nutrient agar medium
# Experimental: as §1
# [7] = test system: Staphylococcus aureus FDA 209P; assay: as above; format: cell-based; conditions: nutrient agar medium
# Experimental: as §1
# [8] = test system: Staphylococcus aureus Smith; assay: as above; format: cell-based; conditions: nutrient agar medium
# Experimental: as §1
# [9] = test system: Streptococcus pyogenes A20201; assay: as above; format: cell-based; conditions: nutrient agar medium
# Experimental: as §1
# lysogenic bacterium = assay: Induction of prophage in lysogenic bacterium (ILB); format: cell-based; conditions: significant activity: T/C of >3.0
# Experimental: The ability of BBM-1644 to induce prophage in lysogenic bacterium (ILB) was determined by the method of Lein et. al. (Nature 196: 783-784, 1962) using neocarzinostatin as a reference compound. The plaque count was made on agar plates containing test material (T) and control (C). A T/C ratio of the plaque counts of greater than 3 was considered significant and the ILB activity was expressed by the minimum inducing concentration of the test compound.
# [10] = test system: lymphocytic leukemia P388; assay: Antitumor activity in mice against lymphocytic leukemia P388 (Table 8); format: in vivo, mice (BDF1 strain); conditions: ip, significant ≥125%
# Experimental: The antitumor activity of BBM-1644 was determined in mice (BDF1 strain) against lymphocytic leukemia P388. Each mouse was inoculated intraperitoneally with 3×10^5 cells of the tumor. Graded doses of the antibiotic were administered to mice intraperitoneally 24 hours after tumor implantation. The treatments were given once a day on days 1, 4 and 7 (q3d ×3 schedule) or 9 consecutive days (qd 1→9 schedule).
# P388 leukemia = assay: Effect on P388 leukemia in mice, second test (Table 9); format: in vivo, CDF1 female mice; conditions: D.1,4&7; for Survivors Day 5: Tox <4/6 alive; for MST % T/C: ≥125 significant
# Description: Antitumor activity of BBM-1644 was also indicated by a second test against P388 leukemia in mice, the results of which are shown below in Table 9. Details of the methods used in this test have been described in Cancer Chemother. Rep. 3: 1-87 (Part 3), 1972.
# 10^6 ascites cells, ip (plus titration)
# Host: CDF1 .female. mice.
# Tox: <4/6 mice alive on Day 5.
# MST = median survival time.
# Effect: % T/C = (MST treated/MST control) × 100.
# Criteria: % T/C ≥ 125 considered significant antitumor
substance,measurement,setting,value
Neocarzinostatin,MIC,[1],3.1 µg/mL
same,MIC,[2],> 100 µg/mL
same,MIC,Escherichia coli NIHJ,> 100 µg/mL
same,MIC,[3],> 100 µg/mL
same,MIC,Micrococcus flavus D12,1.6 µg/mL
same,MIC,[4],1.6 µg/mL
same,MIC,Mycobacterium phlei D88,12.5 µg/mL
same,MIC,[5],50 µg/mL
same,MIC,Proteus vulgaris A9436,> 100 µg/mL
same,MIC,[6],> 100 µg/mL
same,MIC,[7],1.6 µg/mL
same,MIC,[8],0.8 µg/mL
same,MIC,[9],3.1 µg/mL
same,ILB activity (T/C),lysogenic bacterium; 0.1 mcg/ml,0.7
same,ILB activity (T/C),lysogenic bacterium; 1 mcg/ml,10.8
same,ILB activity (T/C),lysogenic bacterium; 10 mcg/ml,20.4
same,ILB activity (T/C),lysogenic bacterium; 100 mcg/ml,28.6
same,T/C (%) in MST,"[10]; 0.01 mg/kg/day, gd 1→9",113%
same,T/C (%) in MST,"[10]; 0.03 mg/kg/day, gd 1→9",125%
same,T/C (%) in MST,"[10]; 0.03 mg/kg/day, q3d × 3",113%
same,T/C (%) in MST,"[10]; 0.1 mg/kg/day, gd 1→9",138%
same,T/C (%) in MST,"[10]; 0.1 mg/kg/day, q3d × 3",125%
same,T/C (%) in MST,"[10]; 0.3 mg/kg/day, gd 1→9",163%
same,T/C (%) in MST,"[10]; 0.3 mg/kg/day, q3d × 3",150%
same,T/C (%) in MST,"[10]; 1 mg/kg/day, q3d × 3",163%
same,AWC d.6,P388 leukemia; 0.05 mg/kg/inj IP,-1.7 gm
same,MST,P388 leukemia; 0.05 mg/kg/inj IP,12.0 days
same,Survivors Day 5,P388 leukemia; 0.05 mg/kg/inj IP,6/6
same,MST % T/C,P388 leukemia; 0.05 mg/kg/inj IP,133%
same,AWC d.6,P388 leukemia; 0.1 mg/kg/inj IP,-1.2 gm
same,MST,P388 leukemia; 0.1 mg/kg/inj IP,13.5 days
same,Survivors Day 5,P388 leukemia; 0.1 mg/kg/inj IP,6/6
same,MST % T/C,P388 leukemia; 0.1 mg/kg/inj IP,150%
same,AWC d.6,P388 leukemia; 0.2 mg/kg/inj IP,-2.5 gm
same,MST,P388 leukemia; 0.2 mg/kg/inj IP,15.0 days
same,Survivors Day 5,P388 leukemia; 0.2 mg/kg/inj IP,6/6
same,MST % T/C,P388 leukemia; 0.2 mg/kg/inj IP,167%
same,AWC d.6,P388 leukemia; 0.4 mg/kg/inj IP,-3.2 gm
same,MST,P388 leukemia; 0.4 mg/kg/inj IP,15.5 days
same,Survivors Day 5,P388 leukemia; 0.4 mg/kg/inj IP,6/6
same,MST % T/C,P388 leukemia; 0.4 mg/kg/inj IP,172%
same,AWC d.6,P388 leukemia; 0.8 mg/kg/inj IP,-4.3 gm
same,MST,P388 leukemia; 0.8 mg/kg/inj IP,10.5 days
same,Survivors Day 5,P388 leukemia; 0.8 mg/kg/inj IP,6/6
same,MST % T/C,P388 leukemia; 0.8 mg/kg/inj IP,117%
same,AWC d.6,P388 leukemia; 1.6 mg/kg/inj IP,-4.8 gm
same,MST,P388 leukemia; 1.6 mg/kg/inj IP,8.0 days
same,Survivors Day 5,P388 leukemia; 1.6 mg/kg/inj IP,6/6
same,MST % T/C,P388 leukemia; 1.6 mg/kg/inj IP,89%

# From patent publication US4546084A, “Biologically pure culture of Actinomadura Sp” (Bristol-Myers Company, priority 1984, dated 1985)
